Publication PMC8507260, “A2E-induced inflammation and angiogenesis in RPE cells in vitro are modulated by PPAR-α, -β/δ, -γ, and RXR antagonists and by norbixin” (Aging (Albany NY), 2021)

What was measured:
Assay type in all cases: cell-based
[1] = test system: AP-1; test: AP-1 transactivation, luciferase reporter in porcine RPE cells
Description: (§1) Pig eyes were obtained from a local slaughterhouse and transported to the laboratory in ice-cold Ringer solution. After removal of the anterior segment of the eye, the vitreous and neural retina was separated from the RPE and removed. The eyecup was washed twice with phosphate buffer saline (PBS), filled with trypsin (0.25% in PBS) and incubated at 37°C for 1.5 h. RPE cells were harvested by gently pipetting, centrifuged to remove trypsin and re-suspended in Dulbecco’s Modified Eagle Medium (DMEM) supplemented with 20% (v/v) foetal-calf serum (DMEM20%FCS) and 0.1% gentamycin. Cells were seeded into 60 mm diameter Petri dishes, cultured in an atmosphere of 5% CO2/95% air at 37°C, and supplied with fresh medium after 24 hours and 4 days in vitro. For experiments aimed at measuring mRNA or protein expression in RPE, cells were trypsinized after one week in culture and transferred to 24-well or 6-well plates at a density of 1.5 × 10^5 cells/cm^2 in DMEM2%FCS. Norbixin or agonists were added to the medium 24 h after seeding, and antagonists were added to the medium 24 h later. A2E treatment was performed during 19 h before cellular sample preparation. All the drugs used in these experiments were prepared as stock solutions in DMSO.
After one week in culture, cells were trypsinized and transferred to a 96-well plate at a density of 6 × 10^4 cells/cm^2 in DMEM2%FCS. The next day, cells were transfected using the Cignal Reporter Assay Kits for PPAR, RXR, AP-1 and NF-κB, according to the manufacturer’s specifications. To measure the specific activation of PPAR isoforms, cells were also co-transfected with PPAR-α, PPAR-β/δ or PPAR-γ expression vectors. […] Luciferase activity was measured the next day using the Dual-Luciferase Reporter Assay System. […] Firefly: Renilla activity ratios were calculated for each condition and ratios from transcription factor-responsive reporter transfections were divided by ratios from negative control transfections to obtain relative luciferase unit, as described by the manufacturer. […]

[2] = test system: ERK; test: ERK phosphorylation by western blot in primary porcine RPE cells
Description: as §1, with “Norbixin or agonists were added to the medium 24 h after seeding, and antagonists were added to the medium 24 h later. A2E treatment was performed during 19 h before cellular sample preparation. All the drugs used in these experiments were prepared as stock solutions in DMSO.” left out
RPE samples were lysed in 20 mM Tris-HCl, 150 mM NaCl, 1 mM EDTA, 1% NP-40, pH 7.5 buffer containing a cocktail of protease and phosphatase inhibitors. […] The signal was developed using enhanced chemiluminescence reagents (ECL) prime detection kit, quantified by densitometry using Bio1D (Vilber Lourmat, Germany) and normalized by GAPDH levels. […]

[3] = test system: MMP9; test: MMP9 mRNA expression by quantitative RT-PCR in porcine RPE cells
Description: as §1, with “All the drugs used in these experiments were prepared as stock solutions in DMSO.” left out
Total RNA was extracted using the NucleoSpin® RNA kit according to manufacturer’s instructions. […] The relative mRNA expression was calculated using the comparative threshold method (Ct-method) with GAPDH for normalization. […]

[4] = test system: PPAR; test: Endogenous PPAR transactivation, luciferase reporter in primary porcine RPE cells
Description: as §1
After one week in culture, cells were trypsinized and transferred to a 96-well plate at a density of 6 × 10^4 cells/cm^2 in DMEM2%FCS. The next day, cells were transfected using the Cignal Reporter Assay Kits for PPAR, RXR, AP-1 and NF-κB, according to the manufacturer’s specifications. To measure the specific activation of PPAR isoforms, cells were also co-transfected with PPAR-α, PPAR-β/δ or PPAR-γ expression vectors. Transfection was performed with Lipofectamine and Plus Reagent in serum-free medium. 3 h after the transfection, the medium was replaced and treatments with the molecules to assay were performed. Luciferase activity was measured the next day using the Dual-Luciferase Reporter Assay System. The measurements were performed with a luminometer (Infinite M1000 from Tecan, Mannedorf, Switzerland). Firefly: Renilla activity ratios were calculated for each condition and ratios from transcription factor-responsive reporter transfections were divided by ratios from negative control transfections to obtain relative luciferase unit, as described by the manufacturer. At least 3 independent transfections were performed in triplicate for each condition.

| Compound | inhibition of AP-1 transactivation induced by A2E ([1]; A2E 20 μM, NBX 20 μM, HX531 5 μM) [%] | effect on ERK phosphorylation induced by A2E ([2]; NBX 20 μM + A2E 30 μM) | effect on MMP9 mRNA expression in the absence or presence of A2E ([3]; NBX 20 μM, A2E 30 μM) | inhibition of endogenous PPAR transactivation induced by A2E ([4]; A2E 20 μM, NBX 20 μM, HX531 5 μM (HX531 effect not significant)) [%] | effect of the compound alone on endogenous PPAR transactivation ([4]; NBX 20 μM, no A2E) | effect of the compound alone on AP-1 transactivation ([1]; A2E 20 μM vs DMSO control) | effect of the compound alone on ERK phosphorylation ([2]; A2E 30 μM vs DMSO control) | effect of the compound alone on MMP9 mRNA expression ([3]; A2E 30 μM vs DMSO control) | minimal required concentration to transactivate all PPARs (endogenous) ([4]; dose-response, porcine RPE cells) [µM] |
| --- | --- | --- | --- | --- | --- | --- | --- | --- | --- |
| CC(/C=C/C=C(C)/C=C/C(=O)O)=C\C=C\C=C(C)\C=C\C=C(C)\C=C\C(=O)O (stereo in doubt) [norbixin, 9’-cis-norbixin] | 82 | not significantly inhibited | slightly, but significantly, increased | 52 | did not inhibit | – | – | – | – |
| CC(C=CC1=C(C)CCCC1(C)C)=CC=CC(C)=Cc1cc(C=CC=C(C)C=CC2=C(C)CCCC2(C)C)cc[n+]1CCO [A2E, N-retinylidene-N-retinylethanolamine] | – | – | – | – | – | induced transactivation of AP-1 | induced the phosphorylation | reduced the expression | 20 |
